# Assay results reported in publication PMC9995496, “A screen for MeCP2-TBL1 interaction inhibitors using a luminescence-based assay” (Scientific Reports, 2023).
# Target: T1, MeCP2-TBL1 interaction (MeCP2-SmBiT / TBL1-LgBiT) (Mus musculus, UniProt Q9QXE7)
# T1 construct: expressed in transfected cells; crude lysate used as a cell-free assay
# T1 sequence (Q9QXE7 166-527): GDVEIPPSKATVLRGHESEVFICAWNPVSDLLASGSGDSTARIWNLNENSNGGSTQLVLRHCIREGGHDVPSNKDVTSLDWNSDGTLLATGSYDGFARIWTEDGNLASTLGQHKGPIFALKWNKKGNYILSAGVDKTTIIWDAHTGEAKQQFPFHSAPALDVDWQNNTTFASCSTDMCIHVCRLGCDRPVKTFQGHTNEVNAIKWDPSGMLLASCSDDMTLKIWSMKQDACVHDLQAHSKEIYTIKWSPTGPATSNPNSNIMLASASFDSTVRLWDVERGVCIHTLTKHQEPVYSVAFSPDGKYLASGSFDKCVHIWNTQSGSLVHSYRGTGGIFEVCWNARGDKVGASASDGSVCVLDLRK
# Assay: MeCP2-TBL1 NanoLuc luciferase complementation assay (cell-free, extracts of transfected HEK293 cells);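 also: each compound tested at 20 µM final concentration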
# Format: binding, human
# Settings: primary screen of Asinex library, single well per compound
# How it was run: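 Cell-free split NanoLuc: lysate of HEK293 cells co-expressing the MeCP2 C-terminal half-SmBiT and TBL1 WD domain-LgBiT, mixed 1:1 with furimazine. After 30 min at room temperature, luminescence was plate-median normalized.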
row,Inhibition percent,SMILES
1,5.31,Cc1cnn(CC(=O)N2CCC3(CC2)Oc2ccc(Cl)cc2[C@H]2OCCC[C@@H]23)c1 [BDG_33900405]
2,0.92,Cc1ccc2c(c1)OC1(CCN(Cc3ccc(Cl)cn3)CC1)[C@H]1CCCO[C@H]21 [BDG_33900424]
3,0.48,CC1(C)Oc2ccccc2[C@@H]2O[C@@H]3CCN(C(=O)CCN4CCCC4=O)[C@@H]3C[C@H]21 [BDG_33901240]
4,0.54,CC(=O)N[C@H](CC(N)=O)C(=O)N1CC[C@@H]2O[C@@H]3c4ccccc4OC(C)(C)[C@H]3C[C@@H]2C1 [BDG_33905309]
5,1.80,C[C@@H]1CC[C@@H]2[C@@H](C1)c1c(ccc(C(=O)NCC(C)(C)CN3CCCC3)c1O)OC2(C)C [BDG_34018827]
6,19.22,CC(C)CCC[C@@]1(C)Oc2cc(O)ccc2[C@H]2OCC3(CCNCC3)C[C@@H]21 [BDG_34020305]
7,6.14,Cc1c(CN2C[C@H](c3ccc(F)cc3)[C@@H](O)[C@H]2C(=O)NCCc2ccccc2)[nH]c2ccc(F)cc12 [BDG_34027529]
8,1.80,CN(C)C(=O)[C@@H]1C[C@@H](n2cc(C(=O)NCCc3ccccc3)ccc2=O)[C@H](c2ccccc2)N1C [BDG_34039793]
9,0.20,CC1(C)Oc2ccc(OCc3ccccc3)cc2[C@@H]2O[C@H](CC(=O)O)CC[C@H]21 [BDG_34041764]
10,-0.28,O=C(O)CCC(=O)N[C@@H]1C[C@@H](Oc2cccc(C(F)(F)F)c2)[C@H](O)[C@H]1N1CCc2ccccc2C1 [BDG_34049652]
11,-1.01,CN(Cc1ccccc1)[C@@H]1[C@@H](O)[C@H](Oc2cccc(C(F)(F)F)c2)C[C@H]1NC(=O)CCN [BDG_34056156]
12,-2.31,COc1cccc2c1OC(C)(C)[C@H]1C[C@@H]3[C@H](CCN3CC(=O)O)O[C@H]21 [BDG_34128979]
13,-3.21,O=C1CCCC[C@]2(CN(C(=O)CCCc3cn[nH]c3)C[C@H]2c2ccccc2F)N1 [BDG_34130330]
14,7.09,CC1(C)Oc2c(cccc2C(F)(F)F)[C@@H]2O[C@@H]3CCN(C(=O)CCCc4cn[nH]c4)[C@@H]3C[C@H]21 [BDG_34130346]
15,1.08,CC1(C)Oc2c(O)cccc2[C@@H]2O[C@@H]3CCN(C(=O)CCCc4cn[nH]c4)C[C@@H]3C[C@H]21 [BDG_34130377]
16,0.45,CC(C)(CC(=O)O)CC(=O)N1CC[C@@H]2O[C@@H]3c4cc(Cl)ccc4OC(C)(C)[C@H]3C[C@@H]2C1 [BDG_34130555]
17,3.20,CC(=O)NCCCCCC(=O)N1CC[C@H]2O[C@H]3c4cc(C(C)(C)C)ccc4OC(C)(C)[C@@H]3C[C@@H]21 [BDG_34131400]
18,3.80,CC(=O)NCCCCCC(=O)N1C[C@@H](c2ccc(F)cc2)[C@@]2(CCCCC(=O)N2)C1 [BDG_34131511]
19,-0.29,CCOc1cccc2c1OC(C)(C)[C@@H]1C[C@@H]3[C@@H](CCCN3C(=O)c3cccc(F)c3C(=O)O)O[C@@H]21 [BDG_34132357]
20,-3.82,COc1ccccc1N1[C@H]2CCCN(C(=O)c3cccc(OCC(=O)O)c3)[C@H]2CC1(C)C [BDG_34133274]
21,2.13,O=C(O)COc1cccc(C(=O)N2C[C@@H](c3ccccc3F)[C@@]3(CCCCC(=O)N3)C2)c1 [BDG_34133280]
22,1.43,CC1(C)Oc2ccc(Cl)cc2[C@H]2O[C@H]3CCN(C(=O)c4ccccc4OCC(=O)O)C[C@H]3C[C@@H]21 [BDG_34133540]
23,5.67,CC1(C)Oc2c(O)cccc2[C@H]2O[C@H]3CCN(C(=O)c4cccc(Cn5ccnc5)c4)[C@@H]3C[C@@H]21 [BDG_34133876]

# Same assay, conditions: primary screen of the Asinex library, sheet "Sargen output Asinex library", one well per compound
row,Inhibition percent,SMILES
1,-3.00%,CC(C)N1CC[C@H]2O[C@H]3c4ccccc4OC(C)(C)[C@@H]3C[C@H]21 [BDG_33900670]
2,0.0324%,COCC(=O)N1CC[C@H]2O[C@H]3c4ccccc4OC(C)(C)[C@@H]3C[C@H]21 [BDG_33900725]
3,-1.08%,Clc1ccc2c(c1)[C@H]1OCCC[C@@H]1C1(CCN(CC3CCOCC3)CC1)O2 [BDG_33901423]
4,2.57%,C[C@@H]1CC[C@@H]2[C@@H](C1)c1c(ccc(C(=O)O)c1O)OC2(C)C [BDG_33904752]
5,0.74%,O=[N+]([O-])c1ccc2c(c1)[C@H]1OCCC[C@@H]1C1(CCCCC1)O2 [BDG_33907582]
6,2.11%,CC(C)(C)OC(=O)N1CC[C@H]2O[C@H]3c4ccc(O)cc4OC(C)(C)[C@@H]3C[C@@H]2C1 [BDG_33953342]
7,-3.58%,CC1(C)Oc2ccccc2[C@@H]2O[C@@H]3CCCN[C@@H]3C[C@H]21 [BDG_33956274]
8,-0.94%,CCOc1cccc2c1OC(C)(C)[C@@H]1C[C@@H]3CNCC[C@H]3O[C@@H]21 [BDG_33956280]
9,0.05%,COc1cccc2c1OC(C)(C)[C@H]1CC3(CCNCC3)[C@H](C)O[C@H]21 [BDG_33959669]
10,-0.86%,C[C@@H]1CC[C@@H]2[C@@H](O1)c1cc(C(=O)NCCc3ccccc3)ccc1OC2(C)C [BDG_34018895]
11,2.58%,O=C(NCCc1ccccc1)[C@@H]1[C@H](O)[C@@H](c2ccc(F)cc2)CN1C(=O)CCc1ccc(Cl)cc1 [BDG_34023221]
12,0.0122%,C[C@@H]1CC[C@@H]2[C@@H](O1)c1cc(OCc3ccccc3)c(C=O)cc1OC2(C)C [BDG_34027484]
13,-0.0357%,C[C@@H]1CC[C@@H]2[C@@H](O1)c1cc(OCc3ccccc3)c(CO)cc1OC2(C)C [BDG_34027487]
14,7.44%,CC(C)C[C@H]1CN(C(=O)c2ccc(O)cc2)CC[C@H]1Nc1cccc(Cl)c1 [BDG_34030674]
15,-0.90%,COc1cccc2c1OC(C)(C)[C@H]1CC[C@H](C3CCN(C(=O)CCCC(=O)O)CC3)O[C@H]21 [BDG_34129516]
16,2.74%,CC1(C)Oc2ccccc2[C@H]2O[C@H]3CCN(C(=O)c4cccc(OCC(=O)O)c4)C[C@@H]3C[C@@H]21 [BDG_34133285]

# Same assay, conditions: primary screen of the Asinex library, sheet "Sargen output Asinex library", one well per compound, Batch Ref. 1
row,Inhibition percent,SMILES
1,-2.85%,COc1cccc2c1OC1(CCN(C(=O)C(C)(C)OC)CC1)[C@H]1CCCO[C@H]21 [BDG_33900230]
2,6.42%,COc1cccc2c1OC1(CCN(Cc3cccc(O)c3)CC1)[C@H]1CCCO[C@H]21 [BDG_33900272]
3,10.01%,COc1ccccc1C(=O)N1CCC2(CC1)Oc1ccc(Cl)cc1[C@H]1OCCC[C@@H]12 [BDG_33900472]
4,-0.96%,CS(=O)(=O)c1ccc(CN2CCC3(CC2)Oc2ccc(Cl)cc2[C@H]2OCCC[C@@H]23)cc1 [BDG_33900656]
5,9.91%,C[C@@H]1CC[C@@H]2[C@@H](C1)c1c(ccc(C(=O)NCCN(C)C)c1O)OC2(C)C [BDG_33904603]
6,-0.13%,CC(=O)N[C@@H](Cc1c[nH]c2ccccc12)C(=O)N1CC[C@H]2O[C@H]3c4cc(Cl)ccc4OC(C)(C)[C@@H]3C[C@H]2C1 [BDG_33905586]
7,5.54%,CC(C)=CCC[C@@]1(C)Oc2cc(OCCO)ccc2[C@H]2O[C@H]3CCN(C(=O)OC(C)(C)C)C[C@@H]3C[C@@H]21 [BDG_33958723]
8,-1.63%,CC(C)[C@H](NC(=O)[C@H](C)N)C(=O)N1CCC[C@H]2O[C@H]3c4cc(Cl)ccc4OC(C)(C)[C@@H]3C[C@H]21 [BDG_34017951]
9,1.89%,CC(C)CCC[C@]1(C)Oc2ccccc2[C@H]2OCC3(CCCN3)C[C@@H]21 (stereo partly shown) [BDG_34020347]
10,2.57%,COC(=O)C[C@H]1CC[C@H]2[C@H](O1)c1cc(-c3ccccc3)ccc1OC2(C)C [BDG_34023292]
11,-1.30%,COc1ccc2c(c1)OC(C)(C)[C@H]1CC[C@H](C)O[C@H]21 [BDG_34023313]
12,6.48%,CC1(C)Oc2ccc(O)cc2[C@H]2O[C@@H](c3ccccc3)CC[C@@H]21 [BDG_34039634]
13,0.88%,Cc1cc(O[C@@H]2C[C@@H](NC(=O)CCC(=O)O)[C@H](N3CCc4ccccc4C3)[C@H]2O)cc(C(C)C)c1 [BDG_34049574]
14,-0.68%,O=C(O)CCC(=O)N[C@@H]1C[C@@H](Oc2cccc(Cl)c2)[C@H](O)[C@H]1N1CCc2ccccc2C1 [BDG_34049608]
15,-1.72%,O=C(O)c1cc(F)ccc1Oc1ccccc1 [BDG_34062401]
16,5.43%,CC1(C)Oc2cc(OCCCNS(C)(=O)=O)ccc2[C@@H]2O[C@H](CCc3ccc(F)cc3)CC[C@H]21 [BDG_34121335]
17,0.89%,CC1(Cc2ccc(F)cc2)Cc2cc(C(=O)N(CCCc3ccc(Cl)cc3)CC(=O)O)ccc2O1 (stereo not shown) [BDG_34127624]
18,-1.85%,COc1cccc2c1OC(C)(C)[C@H]1CC[C@H](C3CCN(CC(=O)O)CC3)O[C@H]21 [BDG_34129039]
19,5.44%,CC1(C)Oc2cc(O)ccc2[C@@H]2O[C@@H]3CCCN(C(=O)CCCC(=O)O)[C@@H]3C[C@H]21 [BDG_34129513]
20,0.07%,CN(C)CCOc1cccc2c1OC(C)(C)[C@H]1C[C@H]3CN(C(=O)CCCC(=O)O)CC[C@@H]3O[C@H]21 [BDG_34129529]
21,14.87%,CC1(C)C[C@H]2[C@H](CCCN2C(=O)CCCc2cn[nH]c2)N1c1cccc(C(F)(F)F)c1 [BDG_34130326]
22,-2.82%,CC1(C)Oc2ccc(O)cc2[C@H]2O[C@H]3CCN(C(=O)c4cccc(OCC(=O)O)c4)[C@@H]3C[C@@H]21 [BDG_34133313]
